Measured values published in ChEMBL document CHEMBL4765228, “Indole-like Trk receptor antagonists” (Eur J Med Chem, 2016).

What was measured:
[1] = molecular target: Aurora kinase B (Homo sapiens) (UniProt Q96GD4); assay: Inhibition of human Aurora-B assessed as residual activity at 0.1 uM relative to control
[2] = molecular target: Tyrosine-protein kinase BTK (Homo sapiens) (UniProt Q06187); assay: Inhibition of human BTK assessed as residual activity at 0.1 uM relative to control
[3] = molecular target: Calcium/calmodulin-dependent protein kinase type 1D (Homo sapiens) (UniProt Q8IU85); assay: Inhibition of human CAMK1D assessed as residual activity at 0.1 uM relative to control
[4] = molecular target: Casein kinase I isoform delta (Homo sapiens) (UniProt P48730); assay: Inhibition of human CK1-delta assessed as residual activity at 1 uM relative to control
[5] = molecular target: T1, Eukaryotic elongation factor 2 kinase (Homo sapiens) (UniProt O00418); assay: Inhibition of human EEF2K assessed as residual activity at 0.1 uM relative to control
T1 sequence (whole entry): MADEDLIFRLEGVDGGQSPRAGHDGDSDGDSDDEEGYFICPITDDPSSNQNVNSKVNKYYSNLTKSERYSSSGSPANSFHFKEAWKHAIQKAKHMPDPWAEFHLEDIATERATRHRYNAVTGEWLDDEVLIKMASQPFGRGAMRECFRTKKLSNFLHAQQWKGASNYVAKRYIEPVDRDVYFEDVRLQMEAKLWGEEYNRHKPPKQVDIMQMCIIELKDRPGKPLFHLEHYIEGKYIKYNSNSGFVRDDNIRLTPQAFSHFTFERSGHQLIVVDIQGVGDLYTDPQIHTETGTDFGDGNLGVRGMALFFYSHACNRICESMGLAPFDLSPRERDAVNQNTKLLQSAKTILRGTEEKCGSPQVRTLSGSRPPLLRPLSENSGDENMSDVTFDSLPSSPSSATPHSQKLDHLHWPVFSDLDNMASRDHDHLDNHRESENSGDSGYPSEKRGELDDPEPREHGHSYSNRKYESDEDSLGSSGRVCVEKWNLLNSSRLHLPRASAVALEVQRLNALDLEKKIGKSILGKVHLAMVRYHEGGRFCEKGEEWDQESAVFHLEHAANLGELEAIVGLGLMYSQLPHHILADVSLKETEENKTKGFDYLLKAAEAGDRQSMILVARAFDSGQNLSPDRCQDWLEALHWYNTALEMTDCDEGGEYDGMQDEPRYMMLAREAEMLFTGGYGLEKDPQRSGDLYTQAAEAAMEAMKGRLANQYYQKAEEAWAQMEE

[6] = molecular target: Ephrin type-A receptor 2 (Homo sapiens) (UniProt P29317); assay: Inhibition of human EPHA2 assessed as residual activity at 1 uM relative to control
[7] = molecular target: Homeodomain-interacting protein kinase 2 (Homo sapiens) (UniProt Q9H2X6); assay: Inhibition of human HIPK2 assessed as residual activity at 0.1 uM relative to control
[8] = molecular target: T2, Interleukin-1 receptor-associated kinase 4 (Homo sapiens) (UniProt Q9NWZ3); assay: Inhibition of human untagged IRAK4 assessed as residual activity at 1 uM relative to control
T2 sequence (whole entry): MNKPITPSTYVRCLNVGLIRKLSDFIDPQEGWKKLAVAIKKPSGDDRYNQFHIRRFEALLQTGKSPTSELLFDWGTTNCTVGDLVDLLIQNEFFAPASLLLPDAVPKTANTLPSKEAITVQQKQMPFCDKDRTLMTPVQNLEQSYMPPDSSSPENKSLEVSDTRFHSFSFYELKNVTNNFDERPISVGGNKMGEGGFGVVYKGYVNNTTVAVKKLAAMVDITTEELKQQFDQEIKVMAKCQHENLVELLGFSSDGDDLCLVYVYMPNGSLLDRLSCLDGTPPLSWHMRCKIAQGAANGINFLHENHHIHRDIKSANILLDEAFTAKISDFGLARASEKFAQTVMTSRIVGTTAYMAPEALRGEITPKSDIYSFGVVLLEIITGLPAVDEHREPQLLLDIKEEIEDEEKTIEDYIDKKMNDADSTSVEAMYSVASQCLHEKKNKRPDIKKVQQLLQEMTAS

[9] = molecular target: Tyrosine-protein kinase Lck (Homo sapiens) (UniProt P06239); assay: Inhibition of human LCK assessed as residual activity at 1 uM relative to control
[10] = molecular target: Dual specificity mitogen-activated protein kinase kinase 1 (Homo sapiens) (UniProt Q02750); assay: Inhibition of human wild type MEK1 assessed as residual activity at 0.1 uM relative to control
[11] = molecular target: Serine/threonine-protein kinase Nek6 (Homo sapiens) (UniProt Q9HC98); assay: Inhibition of human NEK6 assessed as residual activity at 0.1 uM relative to control
[12] = molecular target: Serine/threonine-protein kinase PAK 4 (Homo sapiens) (UniProt O96013); assay: Inhibition of human PAK4 assessed as residual activity at 1 uM relative to control
[13] = species on record: Homo sapiens; assay: Inhibition of human PKA assessed as residual activity at 1 uM relative to control
[14] = molecular target: Serine/threonine-protein kinase PLK1 (Homo sapiens) (UniProt P53350); assay: Inhibition of human PLK1 assessed as residual activity at 0.1 uM relative to control
[15] = molecular target: Rho-associated protein kinase 2 (Homo sapiens) (UniProt O75116); assay: Inhibition of human ROCK2 assessed as residual activity at 0.1 uM relative to control
[16] = molecular target: Rho-associated protein kinase 2 (Homo sapiens) (UniProt O75116); assay: Inhibition of human ROCK2 assessed as residual activity at 1 uM relative to control
[17] = molecular target: Ribosomal protein S6 kinase alpha-5 (Homo sapiens) (UniProt O75582); assay: Inhibition of human RPS6KA5 assessed as residual activity at 0.1 uM relative to control
[18] = molecular target: SRSF protein kinase 1 (Homo sapiens) (UniProt Q96SB4); assay: Inhibition of human SRPK1 assessed as residual activity at 0.1 uM relative to control
[19] = molecular target: T3, High affinity nerve growth factor receptor (Homo sapiens, UniProt P04629); assay: Inhibition of human TRKA assessed as residual activity at 0.1 uM relative to control
[20] = molecular target: T3, High affinity nerve growth factor receptor; assay: Inhibition of human TRKA assessed as residual activity at 1 uM relative to control
[21] = molecular target: Vascular endothelial growth factor receptor 1 (Homo sapiens) (UniProt P17948); assay: Inhibition of human VEGFR1 assessed as residual activity at 1 uM relative to control
[22] = molecular target: 3-phosphoinositide-dependent protein kinase 1 (Homo sapiens) (UniProt O15530); assay: Inhibition of human PDK1 assessed as residual activity at 1 uM relative to control

Tyrosine-protein kinase BTK (Homo sapiens), sequence (Q06187 whole entry): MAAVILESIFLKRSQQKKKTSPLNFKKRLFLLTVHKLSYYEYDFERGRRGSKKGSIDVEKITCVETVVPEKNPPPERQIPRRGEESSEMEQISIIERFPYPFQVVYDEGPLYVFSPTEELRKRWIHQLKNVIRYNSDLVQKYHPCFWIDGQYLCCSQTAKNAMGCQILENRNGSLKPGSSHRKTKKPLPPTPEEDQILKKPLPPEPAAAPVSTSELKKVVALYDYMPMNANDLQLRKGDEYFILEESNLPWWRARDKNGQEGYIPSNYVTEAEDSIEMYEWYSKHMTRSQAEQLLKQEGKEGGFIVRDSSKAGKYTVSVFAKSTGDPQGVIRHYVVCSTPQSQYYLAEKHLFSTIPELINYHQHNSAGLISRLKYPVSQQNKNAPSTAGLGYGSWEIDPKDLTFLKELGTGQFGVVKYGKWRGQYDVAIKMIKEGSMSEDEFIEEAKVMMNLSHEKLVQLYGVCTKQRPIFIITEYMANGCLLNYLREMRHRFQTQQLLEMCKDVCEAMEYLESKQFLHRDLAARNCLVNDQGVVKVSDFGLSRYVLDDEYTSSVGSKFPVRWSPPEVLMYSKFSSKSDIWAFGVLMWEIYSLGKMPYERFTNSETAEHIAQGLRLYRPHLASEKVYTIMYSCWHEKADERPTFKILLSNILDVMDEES
T3 sequence (P04629 33-796 limits assumed): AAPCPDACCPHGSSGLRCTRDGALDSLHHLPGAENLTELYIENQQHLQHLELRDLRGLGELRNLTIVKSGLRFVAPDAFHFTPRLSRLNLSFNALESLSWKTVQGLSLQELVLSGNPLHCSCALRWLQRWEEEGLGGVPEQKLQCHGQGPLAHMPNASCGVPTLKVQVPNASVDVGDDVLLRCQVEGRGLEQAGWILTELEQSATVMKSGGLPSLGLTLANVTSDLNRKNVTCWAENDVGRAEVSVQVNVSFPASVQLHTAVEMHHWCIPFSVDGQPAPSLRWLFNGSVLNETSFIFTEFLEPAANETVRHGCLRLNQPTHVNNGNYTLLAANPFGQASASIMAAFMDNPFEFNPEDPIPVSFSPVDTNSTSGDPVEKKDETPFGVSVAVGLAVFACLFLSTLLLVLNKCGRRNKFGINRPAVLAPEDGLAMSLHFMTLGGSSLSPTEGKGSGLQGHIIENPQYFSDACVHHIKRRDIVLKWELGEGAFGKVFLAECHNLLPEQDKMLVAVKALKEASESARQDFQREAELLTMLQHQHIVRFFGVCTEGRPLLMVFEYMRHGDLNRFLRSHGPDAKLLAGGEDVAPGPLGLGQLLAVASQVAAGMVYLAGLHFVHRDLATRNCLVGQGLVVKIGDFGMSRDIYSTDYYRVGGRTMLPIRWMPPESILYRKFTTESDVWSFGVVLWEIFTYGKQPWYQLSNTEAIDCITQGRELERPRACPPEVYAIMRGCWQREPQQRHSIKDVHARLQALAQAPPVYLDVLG
Ribosomal protein S6 kinase alpha-5 (Homo sapiens), sequence (O75582 whole entry, looked up): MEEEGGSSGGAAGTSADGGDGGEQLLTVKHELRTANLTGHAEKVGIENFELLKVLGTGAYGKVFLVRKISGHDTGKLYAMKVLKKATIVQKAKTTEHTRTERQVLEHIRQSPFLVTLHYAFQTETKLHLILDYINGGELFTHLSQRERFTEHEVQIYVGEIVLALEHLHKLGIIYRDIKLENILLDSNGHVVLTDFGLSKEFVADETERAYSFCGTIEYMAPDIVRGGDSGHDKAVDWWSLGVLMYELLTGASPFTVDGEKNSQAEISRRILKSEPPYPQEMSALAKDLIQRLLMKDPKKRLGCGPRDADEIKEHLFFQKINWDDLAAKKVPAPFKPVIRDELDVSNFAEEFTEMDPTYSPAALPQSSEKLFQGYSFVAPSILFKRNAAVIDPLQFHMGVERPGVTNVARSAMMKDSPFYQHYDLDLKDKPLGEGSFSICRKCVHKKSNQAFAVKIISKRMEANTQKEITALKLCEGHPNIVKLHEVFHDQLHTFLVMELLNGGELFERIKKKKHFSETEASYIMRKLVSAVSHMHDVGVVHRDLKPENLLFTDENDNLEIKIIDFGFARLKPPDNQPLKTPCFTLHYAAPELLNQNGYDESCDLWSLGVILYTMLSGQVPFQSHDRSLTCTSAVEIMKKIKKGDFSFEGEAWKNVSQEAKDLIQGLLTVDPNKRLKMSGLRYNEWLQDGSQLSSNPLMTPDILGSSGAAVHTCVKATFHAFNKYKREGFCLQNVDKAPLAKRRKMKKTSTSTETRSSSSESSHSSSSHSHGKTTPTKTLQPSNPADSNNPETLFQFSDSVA
Rho-associated protein kinase 2 (Homo sapiens), sequence (O75116 whole entry, looked up): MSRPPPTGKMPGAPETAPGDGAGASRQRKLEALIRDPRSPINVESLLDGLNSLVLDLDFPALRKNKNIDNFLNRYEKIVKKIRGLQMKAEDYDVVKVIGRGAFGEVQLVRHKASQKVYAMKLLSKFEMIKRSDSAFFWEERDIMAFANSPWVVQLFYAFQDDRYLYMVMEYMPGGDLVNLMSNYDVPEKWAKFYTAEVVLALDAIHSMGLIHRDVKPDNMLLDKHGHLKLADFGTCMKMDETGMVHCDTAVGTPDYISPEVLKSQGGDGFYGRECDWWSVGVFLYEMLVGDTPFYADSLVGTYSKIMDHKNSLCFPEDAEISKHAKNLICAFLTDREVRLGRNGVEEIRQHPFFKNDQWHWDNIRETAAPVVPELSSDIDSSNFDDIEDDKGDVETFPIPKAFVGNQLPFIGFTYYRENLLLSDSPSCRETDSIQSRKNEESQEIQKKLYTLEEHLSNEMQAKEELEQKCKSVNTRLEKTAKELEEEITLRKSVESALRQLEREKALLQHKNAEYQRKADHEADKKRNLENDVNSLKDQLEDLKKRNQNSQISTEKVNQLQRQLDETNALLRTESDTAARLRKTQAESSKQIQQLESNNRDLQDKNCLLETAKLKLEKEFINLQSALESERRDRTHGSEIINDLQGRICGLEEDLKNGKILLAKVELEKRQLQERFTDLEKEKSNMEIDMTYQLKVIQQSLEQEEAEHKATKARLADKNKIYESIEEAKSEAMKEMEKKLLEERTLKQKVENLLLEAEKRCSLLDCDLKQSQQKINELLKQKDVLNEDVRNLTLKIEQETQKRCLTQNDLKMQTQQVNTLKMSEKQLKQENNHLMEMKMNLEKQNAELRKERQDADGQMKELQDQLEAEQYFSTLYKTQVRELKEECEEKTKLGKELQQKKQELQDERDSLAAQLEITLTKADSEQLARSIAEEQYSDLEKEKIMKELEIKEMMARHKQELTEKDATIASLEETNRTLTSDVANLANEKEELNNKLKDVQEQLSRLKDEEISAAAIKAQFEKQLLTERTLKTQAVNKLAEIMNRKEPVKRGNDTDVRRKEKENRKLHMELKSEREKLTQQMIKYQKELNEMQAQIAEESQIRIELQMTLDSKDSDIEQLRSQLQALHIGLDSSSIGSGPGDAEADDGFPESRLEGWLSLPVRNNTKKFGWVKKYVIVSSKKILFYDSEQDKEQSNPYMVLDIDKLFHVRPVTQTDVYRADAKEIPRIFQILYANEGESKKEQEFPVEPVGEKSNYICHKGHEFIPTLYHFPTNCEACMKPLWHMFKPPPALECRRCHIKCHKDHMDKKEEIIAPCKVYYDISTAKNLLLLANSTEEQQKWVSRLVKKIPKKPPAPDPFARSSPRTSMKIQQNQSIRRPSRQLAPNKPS
Vascular endothelial growth factor receptor 1 (Homo sapiens), sequence (P17948 whole entry): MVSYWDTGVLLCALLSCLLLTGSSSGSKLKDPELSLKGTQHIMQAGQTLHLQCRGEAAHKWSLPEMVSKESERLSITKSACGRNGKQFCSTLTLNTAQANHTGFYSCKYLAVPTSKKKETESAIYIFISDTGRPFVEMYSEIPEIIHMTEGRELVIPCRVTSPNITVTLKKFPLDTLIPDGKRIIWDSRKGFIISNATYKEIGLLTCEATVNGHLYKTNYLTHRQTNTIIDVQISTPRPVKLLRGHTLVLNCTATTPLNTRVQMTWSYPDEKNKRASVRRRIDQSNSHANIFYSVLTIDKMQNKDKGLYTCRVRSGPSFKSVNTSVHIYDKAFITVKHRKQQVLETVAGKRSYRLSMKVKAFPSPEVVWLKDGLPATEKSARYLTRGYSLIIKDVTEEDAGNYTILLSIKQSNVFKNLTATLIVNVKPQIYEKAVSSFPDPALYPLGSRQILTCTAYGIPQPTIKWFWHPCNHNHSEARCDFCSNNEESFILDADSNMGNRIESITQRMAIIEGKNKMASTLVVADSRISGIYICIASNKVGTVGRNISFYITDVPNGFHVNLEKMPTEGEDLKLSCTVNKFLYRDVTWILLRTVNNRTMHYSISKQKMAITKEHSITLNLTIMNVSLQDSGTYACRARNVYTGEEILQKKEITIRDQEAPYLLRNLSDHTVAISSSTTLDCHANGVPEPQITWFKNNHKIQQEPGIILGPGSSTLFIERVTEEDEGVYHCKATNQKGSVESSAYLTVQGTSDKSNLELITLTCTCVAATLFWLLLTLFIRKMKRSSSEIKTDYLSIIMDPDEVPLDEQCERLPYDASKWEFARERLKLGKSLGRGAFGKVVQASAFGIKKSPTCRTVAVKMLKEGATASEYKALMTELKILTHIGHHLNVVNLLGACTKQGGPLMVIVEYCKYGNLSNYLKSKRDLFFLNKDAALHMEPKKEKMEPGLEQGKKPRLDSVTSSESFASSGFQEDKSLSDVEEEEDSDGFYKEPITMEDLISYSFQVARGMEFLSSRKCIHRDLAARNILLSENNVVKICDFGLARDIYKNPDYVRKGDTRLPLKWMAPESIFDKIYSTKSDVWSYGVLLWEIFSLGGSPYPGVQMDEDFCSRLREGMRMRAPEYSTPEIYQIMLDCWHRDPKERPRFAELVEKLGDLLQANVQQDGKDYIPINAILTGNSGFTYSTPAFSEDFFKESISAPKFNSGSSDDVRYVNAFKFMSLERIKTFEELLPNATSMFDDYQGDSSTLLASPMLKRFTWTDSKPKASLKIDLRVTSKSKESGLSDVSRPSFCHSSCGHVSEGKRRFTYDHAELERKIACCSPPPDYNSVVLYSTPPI

SMILES | Activity [1] | Activity [2] | Activity [3] | Activity [4] | Activity [5] | Activity [6] | Activity [7] | Activity [8] | Activity [9] | Activity [10] | Activity [11] | Activity [12] | Activity [13] | Activity [14] | Activity [15] | Activity [16] | Activity [17] | Activity [18] | Activity [19] | Activity [20] | also measured
COc1ccc2[nH]cc(/C=C3\C(=O)Nc4ccc(S(N)(=O)=O)cc43)c2c1 | 95% | 100% | 97% | 79% | 107% | 98% | 124% | 9% | 61% | 87% | 117% | 82% | 84% | 93% | 101% | 61% | 93% | 114% | 6% | 0% | Activity [21]: 76%; Activity [22]: 66%
COc1ccc2c(c1)c(/C=C1\C(=O)Nc3ccc(S(=O)(=O)N(C)C)cc31)cn2C | 85% | 89% | 99% | 86% | 99% | 89% | 109% | 83% | 64% | 104% | 100% | 99% | 98% | 83% | 92% | 89% | 105% | 111% | 18% | 6% | Activity [21]: 93%; Activity [22]: 84%
COc1ccc2c(c1)c(/C=C1\C(=O)Nc3ccc(S(N)(=O)=O)cc31)cn2C | 79% | 117% | 84% | 84% | 101% | 89% | 108% | 20% | 32% | 82% | 106% | 68% | 91% | 93% | 99% | 87% | 103% | 106% | 3% | 1% | Activity [21]: 85%; Activity [22]: 75%
Cn1cc(/C=C2\C(=O)Nc3ccc(S(N)(=O)=O)cc32)c2ccccc21 | 59% | 111% | 106% | 82% | 99% | 90% | 112% | 3% | 50% | 67% | 111% | 78% | 87% | 102% | 76% | 55% | 99% | 116% | 3% | 2% | Activity [21]: 81%; Activity [22]: 70%
CNS(=O)(=O)c1ccc2c(c1)/C(=C/c1cn(C)c3ccc(OC)cc13)C(=O)N2 | 74% | 97% | 90% | 91% | 103% | 84% | 106% | 37% | 41% | 104% | 99% | 91% | 83% | 92% | 94% | 79% | 96% | 105% | 4% | 3% | Activity [21]: 59%; Activity [22]: 123%
CN(C)S(=O)(=O)c1ccc2c(c1)/C(=C/c1cn(C)c3ccc(O)cc13)C(=O)N2 | 43% | 95% | 100% | 87% | 97% | 98% | 120% | 52% | 33% | 107% | 104% | 90% | 103% | 93% | 79% | 69% | 106% | 109% | 10% | 2% | Activity [21]: 93%; Activity [22]: 83%
